Assay [1] addresses T1, VC1 and ACGC domains (UniProt P26769+P30803, D1018C/K938E).
T1 construct: The soluble intracellular (C1 and C2) domains of adenylyl cyclase were utilized; The mutations to enhance guanylyl cyclase activity are in the C2 domain
Description: guanylyl cyclase activity in the presence of Mn2+, BODIPY FL-GTPγS as substrate. In kind it is biochemical. The note with it: 5 mM Mg2+ and 5 mM Mn2+ vs 10 mM Mg2+. The procedure: This Example describes the effect of Mn^2+ on guanylyl cyclase activity. All assays were performed at 22° C. in the presence of 2 μM BODIPY FL-GTPγS and the presence of 5 mM Mg ^2+ and 5 mM Mn^2+ or 10 mM Mg^2+ and the absence or presence of 100 μM forskolin (Fsk). Assays were performed in a 96 well, low fluorescence microtitre plate using a fluorescence plate reader. Excitation and emission wavelengths were 485 and 525 nm respectively.
The linear portion of the progress curves from data in FIG. 2B was fitted by linear regression with respect to time. The individual rates are plotted against the concentration of the VC1 domain.

Assay [2] concerns wild type adenylyl cyclases (ACs). The settings on record: addition of Mn2+ compared with Mg2+; cited from earlier work.
In assay [3] the target is T2, membrane-bound form of AC1 (adenylyl cyclase type I) expressed in sf9 cells (Homo sapiens, UniProt Q08828).
T2 construct: made in house; host or cells: sf9 cells
Kind of assay: membrane cyclase fluorescence assay. The assay is classed as biochemical. As for the experimental part: The activity of a membrane-bound form of AC1 (adenylyl cyclase type I) expressed in sf9 cells was measured using the fluorescence assay described above.

Structures are written as SMILES.

T2 sequence (Q08828 whole entry): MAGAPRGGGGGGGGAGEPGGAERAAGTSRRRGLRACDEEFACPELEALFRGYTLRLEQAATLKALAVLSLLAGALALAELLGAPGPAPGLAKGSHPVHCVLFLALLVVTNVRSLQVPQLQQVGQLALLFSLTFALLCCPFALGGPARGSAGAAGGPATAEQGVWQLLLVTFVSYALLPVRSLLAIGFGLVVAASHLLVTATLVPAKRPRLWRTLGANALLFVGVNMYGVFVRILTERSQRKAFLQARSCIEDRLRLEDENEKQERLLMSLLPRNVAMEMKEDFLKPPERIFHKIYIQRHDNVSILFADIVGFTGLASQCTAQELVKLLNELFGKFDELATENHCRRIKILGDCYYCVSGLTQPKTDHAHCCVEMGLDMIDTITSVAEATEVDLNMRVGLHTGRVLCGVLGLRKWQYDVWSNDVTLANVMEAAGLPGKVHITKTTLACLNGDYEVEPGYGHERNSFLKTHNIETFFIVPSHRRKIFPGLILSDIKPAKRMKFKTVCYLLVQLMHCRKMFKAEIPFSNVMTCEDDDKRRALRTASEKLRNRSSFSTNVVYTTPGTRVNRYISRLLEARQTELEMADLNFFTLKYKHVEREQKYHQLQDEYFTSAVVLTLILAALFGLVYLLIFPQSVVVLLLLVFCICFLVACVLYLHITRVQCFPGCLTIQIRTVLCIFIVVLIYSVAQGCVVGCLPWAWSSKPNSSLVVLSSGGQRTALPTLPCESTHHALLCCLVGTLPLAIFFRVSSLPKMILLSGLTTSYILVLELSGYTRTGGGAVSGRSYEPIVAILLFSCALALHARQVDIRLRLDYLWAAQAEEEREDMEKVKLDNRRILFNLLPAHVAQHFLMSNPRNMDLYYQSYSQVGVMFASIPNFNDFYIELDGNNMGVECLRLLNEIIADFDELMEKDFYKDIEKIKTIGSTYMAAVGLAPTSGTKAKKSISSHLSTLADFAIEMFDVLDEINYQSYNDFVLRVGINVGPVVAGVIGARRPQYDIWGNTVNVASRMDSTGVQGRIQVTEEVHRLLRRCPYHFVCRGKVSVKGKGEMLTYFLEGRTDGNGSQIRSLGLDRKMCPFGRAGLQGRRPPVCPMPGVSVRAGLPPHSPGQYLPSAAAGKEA

On to `[Mn+2]` [Mn^2+], for which the “enhancement of the forskolin-activated rate of accumulation of BODIPY-thio-pyrophosphate” value in assay [1] (100 μM forskolin) is listed as “over thirty-fold”. Moreover, the “effect on basal activity” value in assay [1] (absence of forskolin) is “enhanced basal activity significantly”. Further, the “alteration of the Km for GTP” value in assay [2] is listed as “at least 1000 fold”.

For the compound `C=C[C@@]1(C)CC(=O)[C@]2(O)[C@@]3(C)[C@@H](O)CCC(C)(C)[C@@H]3[C@H](O)[C@H](OC(C)=O)[C@@]2(C)O1` [forskolin], the “effective concentration to produce the half maximal activation (EC50)” value in assay [3] is listed as “consistent with previously published values”.
